Results published in PubChem BioAssay AID330 (DTP/NCI, 2004).
“And” between values parts separate entries of the source, which are not always exact repeats. Identical values can stand only once. Inconclusive results and toxic doses are left out.

Test system: P388 leukemia ip, CD2F1 mice, survival T/C
Test: NCI In Vivo Anticancer Drug Screen. Data for tumor model P388 Leukemia (intraperitoneal) in CD2F1 (CDF1) mice
Conditions: endpoint: median survival time, higher = longer survival
Outline: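 Mice carrying the transplanted tumor received test compound or vehicle. Survival was recorded in each group, and the value is the treated-group measurement divided by that of the vehicle-treated control group.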

[1] = dose: 50.0 mg/kg/injection, schedule: Q01DX009 (ip), vehicle: saline
[2] = dose: 100.0 mg/kg/injection, schedule: Q01DX009 (ip), vehicle: saline

CC(=O)OCC1OC(SP(c2ccccc2)c2ccccc2)C(OC(C)=O)C(OC(C)=O)C1OC(C)=O (stereo unspecified)
T/C (dose: 50.0 mg/kg/injection, schedule: Q01DX009 (ip), vehicle: saline + alcohol): 116 % of control
T/C (dose: 100.0 mg/kg/injection, schedule: Q01DX009 (ip), vehicle: saline + alcohol): 118 % of control
T/C (dose: 200.0 mg/kg/injection, schedule: Q01DX009 (ip), vehicle: saline + alcohol): 108 % of control

S=c1[nH][nH]c(=S)s1
T/C (dose: 25.0 mg/kg/injection, schedule: Q01DX009 (ip), vehicle: Klucel (hydroxypropylcellulose) (HPC)): 95 % of control
T/C (dose: 50.0 mg/kg/injection, schedule: Q01DX009 (ip), vehicle: Klucel (hydroxypropylcellulose) (HPC)): 95 % of control

COC(=O)c1c(-c2ccc3c(c2)OCO3)cn(C)c1C
T/C (dose: 50.0 mg/kg/injection, schedule: Q01DX005 (ip), vehicle: saline with Tween-80): 97 % of control
T/C (dose: 100.0 mg/kg/injection, schedule: Q01DX005 (ip), vehicle: saline with Tween-80): 91 % of control
T/C (dose: 200.0 mg/kg/injection, schedule: Q01DX005 (ip), vehicle: saline with Tween-80): 87 % of control

COc1cc(NC(C)CCCN)c2ncccc2c1Sc1ccc(Cl)cc1 (stereo unspecified)
T/C (dose: 3.13 mg/kg/injection, schedule: Q01DX009 (ip), vehicle: saline with Tween-80): 89 % of control
T/C (dose: 6.25 mg/kg/injection, schedule: Q01DX009 (ip), vehicle: saline with Tween-80): 94 % of control

COc1ccc(C(=O)Cc2cc3c(cc2Br)OCO3)cc1OC
T/C (dose: 100.0 mg/kg/injection, schedule: Q01DX001 (ip), vehicle: Klucel (hydroxypropylcellulose) (HPC)): 101 % of control
T/C (dose: 200.0 mg/kg/injection, schedule: Q01DX001 (ip), vehicle: Klucel (hydroxypropylcellulose) (HPC)): 105 % of control
T/C (dose: 400.0 mg/kg/injection, schedule: Q01DX001 (ip), vehicle: Klucel (hydroxypropylcellulose) (HPC)): 99 % of control

CCCCCCCCOC(=O)NCCCCC(N)C(=O)O (stereo unspecified)
T/C [1]: 87 % of control
T/C [2]: 101 % of control
T/C (dose: 200.0 mg/kg/injection, schedule: Q01DX009 (ip), vehicle: saline): 103 % of control

CS(=O)(=O)OCCCCCCCCCOS(C)(=O)=O
T/C (dose: 12.5 mg/kg/injection, schedule: Q01DX009 (ip), vehicle: saline sonified): 109 % of control
T/C (dose: 25.0 mg/kg/injection, schedule: Q01DX009 (ip), vehicle: saline sonified): 122 % of control
T/C (dose: 33.0 mg/kg/injection, schedule: Q04DX003 (ip), vehicle: saline with Tween-80): 109 % of control
T/C (dose: 50.0 mg/kg/injection, schedule: Q01DX009 (ip), vehicle: saline sonified): 118 % of control
T/C (dose: 50.0 mg/kg/injection, schedule: Q04DX003 (ip), vehicle: saline with Tween-80): 122 % of control
T/C (dose: 75.0 mg/kg/injection, schedule: Q04DX003 (ip), vehicle: saline with Tween-80): 159 % of control

[Cl][Mn][Cl]
T/C (dose: 0.25 mg/kg/injection, schedule: Q01DX009 (ip), vehicle: saline): 99 % of control
T/C (dose: 0.5 mg/kg/injection, schedule: Q01DX009 (ip), vehicle: saline): 90 % of control and 97 % of control
T/C (dose: 1.0 mg/kg/injection, schedule: Q01DX009 (ip), vehicle: saline): 100 % of control
T/C (dose: 2.0 mg/kg/injection, schedule: Q01DX009 (ip), vehicle: saline): 88 % of control and 94 % of control
T/C (dose: 4.0 mg/kg/injection, schedule: Q01DX009 (ip), vehicle: suspension in saline): 119 % of control
T/C (dose: 8.0 mg/kg/injection, schedule: Q01DX009 (ip), vehicle: saline): 90 % of control
T/C (dose: 8.0 mg/kg/injection, schedule: Q01DX009 (ip), vehicle: suspension in saline): 97 % of control
T/C (dose: 16.0 mg/kg/injection, schedule: Q01DX009 (ip), vehicle: saline): 100 % of control
T/C (dose: 16.0 mg/kg/injection, schedule: Q01DX009 (ip), vehicle: suspension in saline): 116 % of control
T/C (dose: 32.0 mg/kg/injection, schedule: Q01DX009 (ip), vehicle: suspension in saline): 119 % of control
T/C (dose: 64.0 mg/kg/injection, schedule: Q01DX009 (ip), vehicle: saline): 100 % of control and 106 % of control
T/C (dose: 64.0 mg/kg/injection, schedule: Q01DX009 (ip), vehicle: suspension in saline): 97 % of control

COc1cccc2c1C(=O)c1c(O)c3c(c(O)c1C2=O)C[C@@](O)(C(=O)CO)C[C@@H]3OC1CC(N2CCOCC2)C(O)C(C)O1 (stereo partly specified)
T/C (dose: 5.0 micrograms/kg/injection, schedule: Q04DX003 (ip), vehicle: water): 102 % of control
T/C (dose: 10.0 micrograms/kg/injection, schedule: Q04DX003 (ip), vehicle: water): 107 % of control
T/C (dose: 20.0 micrograms/kg/injection, schedule: Q04DX003 (ip), vehicle: water): 106 % of control
T/C (dose: 22.0 micrograms/kg/injection, schedule: Q04DX003 (iv), vehicle: saline + alcohol): 153 % of control
T/C (dose: 31.25 micrograms/kg/injection, schedule: Q04DX003 (ip), vehicle: water): 106 % of control
T/C (dose: 33.0 micrograms/kg/injection, schedule: Q04DX003 (iv), vehicle: saline + alcohol): 180 % of control
T/C (dose: 40.0 micrograms/kg/injection, schedule: Q04DX003 (ip), vehicle: water): 104 % of control
T/C (dose: 50.0 micrograms/kg/injection, schedule: Q04DX003 (iv), vehicle: saline + alcohol): 173 % of control
T/C (dose: 62.5 micrograms/kg/injection, schedule: Q04DX003 (ip), vehicle: water): 100 % of control
T/C (dose: 75.0 micrograms/kg/injection, schedule: Q04DX003 (iv), vehicle: saline + alcohol): 113 % of control
T/C (dose: 125.0 micrograms/kg/injection, schedule: Q04DX003 (ip), vehicle: water): 111 % of control
T/C (dose: 250.0 micrograms/kg/injection, schedule: Q04DX003 (ip), vehicle: water): 110 % of control
T/C (dose: 500.0 micrograms/kg/injection, schedule: Q04DX003 (ip), vehicle: water): 99 % of control

CN1C2CCC1C(CO)C(O)C2 (stereo unspecified)
T/C (dose: 50.0 mg/kg/injection, schedule: Q01DX005 (ip), vehicle: saline): 98 % of control
T/C (dose: 100.0 mg/kg/injection, schedule: Q01DX005 (ip), vehicle: saline): 103 % of control
T/C (dose: 200.0 mg/kg/injection, schedule: Q01DX005 (ip), vehicle: saline): 107 % of control

CCCCCCCCCCCCCCCC[N+]1(CC)CCCC1
T/C (dose: 0.09 mg/kg/injection, schedule: Q01DX009 (ip), vehicle: saline): 100 % of control
T/C (dose: 0.19 mg/kg/injection, schedule: Q01DX009 (ip), vehicle: saline): 98 % of control
T/C (dose: 0.39 mg/kg/injection, schedule: Q01DX009 (ip), vehicle: saline): 112 % of control and 93 % of control

CCOC(=O)c1c(Cl)c(Cl)c(C(=O)OCC)c(Cl)c1Cl
T/C (dose: 100.0 mg/kg/injection, schedule: Q04DX003 (ip), vehicle: saline sonified): 100 % of control
T/C (dose: 200.0 mg/kg/injection, schedule: Q04DX003 (ip), vehicle: saline sonified): 100 % of control
T/C (dose: 400.0 mg/kg/injection, schedule: Q04DX003 (ip), vehicle: saline sonified): 100 % of control

CC1(C)N=C(N)N=C(N)N1c1ccc(CN)cc1
T/C (dose: 60.0 mg/kg/injection, schedule: Q01DX005 (ip), vehicle: saline): 110 % of control
T/C (dose: 120.0 mg/kg/injection, schedule: Q01DX005 (ip), vehicle: saline): 103 % of control
T/C (dose: 240.0 mg/kg/injection, schedule: Q01DX005 (ip), vehicle: saline): 106 % of control

N/C=N/O
T/C (dose: 25.0 mg/kg/injection, schedule: Q01DX009 (ip), vehicle: saline): 101 % of control
T/C [1]: 101 % of control
T/C [2]: 111 % of control and 122 % of control
T/C (dose: 174.0 mg/kg/injection, schedule: Q01DX009 (ip), vehicle: saline): 123 % of control
T/C (dose: 260.0 mg/kg/injection, schedule: Q01DX009 (ip), vehicle: saline): 90 % of control
T/C (dose: 400.0 mg/kg/injection, schedule: Q01DX009 (ip), vehicle: saline): 161 % of control

COc1ccc(CN2COc3c(ccc4ccccc34)C2)cc1
T/C (dose: 100.0 mg/kg/injection, schedule: Q04DX003 (ip), vehicle: Klucel (hydroxypropylcellulose) (HPC)): 97 % of control
T/C (dose: 200.0 mg/kg/injection, schedule: Q04DX003 (ip), vehicle: Klucel (hydroxypropylcellulose) (HPC)): 96 % of control
T/C (dose: 400.0 mg/kg/injection, schedule: Q04DX003 (ip), vehicle: Klucel (hydroxypropylcellulose) (HPC)): 100 % of control

COCCCNCC(=O)Nc1ccc(S(=O)(=O)c2ccc(NC(=O)CNCCCOC)cc2)cc1
T/C (dose: 50.0 mg/kg/injection, schedule: Q01DX005 (ip), vehicle: acid diluted with saline): 107 % of control
T/C (dose: 100.0 mg/kg/injection, schedule: Q01DX005 (ip), vehicle: acid diluted with saline): 104 % of control
T/C (dose: 200.0 mg/kg/injection, schedule: Q01DX005 (ip), vehicle: acid diluted with saline): 112 % of control

C/C(=N\NC(N)=Nc1ccc(Cl)cc1)c1ccc2c(c1)Cc1cc(/C(C)=N/NC(N)=Nc3ccc(Cl)cc3)ccc1-2
T/C (dose: 25.0 mg/kg/injection, schedule: Q04DX002 (ip), vehicle: saline with Tween-80): 87 % of control
T/C (dose: 50.0 mg/kg/injection, schedule: Q04DX002 (ip), vehicle: saline with Tween-80): 90 % of control
T/C (dose: 100.0 mg/kg/injection, schedule: Q04DX002 (ip), vehicle: saline with Tween-80): 97 % of control
T/C (dose: 200.0 mg/kg/injection, schedule: Q04DX002 (ip), vehicle: saline with Tween-80): 101 % of control
T/C (dose: 400.0 mg/kg/injection, schedule: Q04DX002 (ip), vehicle: saline with Tween-80): 100 % of control
